# According to patent publication US10080714B2, “Peptides and their use in the treatment of hair” (Avon Products, Inc., priority 2015, dated 2018):
# Square brackets hold non-standard residues; d marks the D form. Ends that are not written are not given here. Ava = NCCCCC(=O)O
# Key:
# Format in all cases: cell-based, human
# KAP11 = KAP11 mRNA expression in Hair Germinal Matrix Cells (qPCR); details: for KAP 11 mRNA expression: 0.0001 wt. % peptide, 48 h, percent change in mRNA expression relative to vehicle control, normalized to GAPDH; for Effect on KAP11 mRNA expression (in words): at the concentration tested
# Method: (§1) Hair Germinal Matrix Cells (ScienCell, Carlsbad, Calif.) were grown in 6-well tissue culture plate (1.5×10^5 cells/well) in MSCM medium supplemented with growth factors (ScienCell, Carlsbad, Calif.). Cells were incubated overnight at 37° C. and 5% CO2. Next day, cells were changed into fresh media and treated with given concentration of peptides for 48 h. After treatment, cells were washed with ice cold PBS, collected into RLT lysis buffer and RNA was extracted using RNeasy Mini Kit (Qiagen, Valencia, Calif.) following manufactures recommendations. 200 ng of RNA was used for cDNA synthesis using High Capactiy cDNA Reverse Transcription Kit (Life Technologies, Carlsbad, Calif.). 1 μL of undiluted cDNA was used per qPCR reaction. Primers used were purchased from Life technologies (Carlsbad, Calif.). Following primers were used: Keratin35 (Hs0060557_g1), KAP8 (Hs00545666_s1), KAP11 (Hs00545667_s1), P-cadherin (Hs00999925_m1). Expression was normalized to GAPDH. The conditions of q-PCR were: an incubation step at 50° C. for 2 minutes and an enzyme activation step at 95° C. for 10minutes; followed by 45 cycles of 95° C. for 30 seconds and 60° C. for 1 minute. CT value was obtained from the software of the Stratagene MX2005P.
# KAP8 = KAP8 mRNA expression in Hair Germinal Matrix Cells (qPCR); details: for KAP 8 mRNA expression: 0.0001 wt. % peptide, 48 h, percent change in mRNA expression relative to vehicle control, normalized to GAPDH; for Effect on Keratin Associated Protein 8 mRNA expression (in words): at the concentration tested
# Method: as §1
# P-cadherin = P-cadherin mRNA expression in Hair Germinal Matrix Cells (qPCR); details: for P-cadherin mRNA expression: 0.0001 wt. % peptide, 48 h, percent change in mRNA expression relative to vehicle control, normalized to GAPDH; for Effect on levels of desmosomal protein P-cadherin (in words): at the concentration tested
# Method: as §1
# [1] = system: Hair Germinal Matrix Cells; test: Proliferation of hair matrix cells (BrdU proliferation kit); details: for Proliferation (%): 24 h treatment, percent change in cell proliferation relative to vehicle control; for Effect on Hair Germinal Matrix Cell proliferation (in words): at the concentrations tested
# Method: Hair Germinal Matrix Cells (ScienCell, Carlsbad, Calif.) were grown in 96-well tissue culture plate (5000 cells/well) in MSCM medium supplemented with growth factors (ScienCell, Carlsbad, Calif.). Cells were incubated overnight at 37° C. and 5% CO2. Next, media were aspirated and cells were incubated in MSCM medium without growth supplement for 4-6 h, followed by treatment with given concentration of peptides for 24 h. After treatment cells were incubated with BrdU for 4 h and proliferation rate was evaluating using BrdU proliferation kit from Cell Signaling (Danvers, Mass.). The results are summarized in Table 2 below as percent change cell proliferation relative to vehicle control (peptide concentrations provided in parentheses) using the following key: 0: <10%, +:11-20%, ++:21-40%, +++:41-60%, ++++:>60%.
# Keratin35 = test: Keratin 35 mRNA expression in Hair Germinal Matrix Cells (qPCR); details: for Keratin 35 mRNA expression: 0.0001 wt. % peptide, 48 h, percent change in mRNA expression relative to vehicle control, normalized to GAPDH; for Effect on Keratin 35 mRNA expression (in words): at the concentration tested
# Method: as §1
substance,measurement,setting,value
K-Ava-PVGK: K-Ava-derivative of tripeptide PVG; Ava = amino valeric acid (K[Ava]PVGK),KAP 11 mRNA expression,KAP11,+++ (+++: 41-60%)
same,Effect on KAP11 mRNA expression (in words),KAP11,effective in upregulating
same,KAP 8 mRNA expression,KAP8,++++ (++++: >60%)
same,Effect on Keratin Associated Protein 8 mRNA expression (in words),KAP8,effective in upregulating
same,P-cadherin mRNA expression,P-cadherin,0 (0; <10%)
same,Proliferation (%),[1]; 0.00001 wt. % peptide,0 (0: <10%)
same,Proliferation (%),[1]; 0.0001 wt. % peptide,0 (0: <10%)
same,Keratin 35 mRNA expression,Keratin35,+++ (+++: 41-60%)
same,Effect on Keratin 35 mRNA expression (in words),Keratin35,effective in upregulating
K-Ava-YNTK: K-Ava-derivative of tripeptide YNT; Ava = amino valeric acid (K[Ava]YNTK),KAP 11 mRNA expression,KAP11,0 (0; <10%)
same,Effect on KAP11 mRNA expression (in words),KAP11,not effective
same,KAP 8 mRNA expression,KAP8,0 (0; <10%)
same,Effect on Keratin Associated Protein 8 mRNA expression (in words),KAP8,not effective
same,P-cadherin mRNA expression,P-cadherin,+++ (+++: 41-60%)
same,Effect on levels of desmosomal protein P-cadherin (in words),P-cadherin,effect was enhanced
same,Proliferation (%),[1]; 0.00001 wt. % peptide,0 (0: <10%)
same,Proliferation (%),[1]; 0.0001 wt. % peptide,0 (0: <10%)
same,Keratin 35 mRNA expression,Keratin35,0 (0; <10%)
same,Effect on Keratin 35 mRNA expression (in words),Keratin35,not effective
PVG: tripeptide of the amino acid sequence PVG,KAP 11 mRNA expression,KAP11,0 (0; <10%)
same,KAP 8 mRNA expression,KAP8,++++ (++++: >60%)
same,Effect on Keratin Associated Protein 8 mRNA expression (in words),KAP8,effectively increase
same,P-cadherin mRNA expression,P-cadherin,0 (0; <10%)
same,Proliferation (%),[1]; 0.00001 wt. % peptide,0 (0: <10%)
same,Proliferation (%),[1]; 0.0001 wt. % peptide,+ (+:11-20%)
same,Effect on Hair Germinal Matrix Cell proliferation (in words),[1],effectively increase
same,Keratin 35 mRNA expression,Keratin35,0 (0; <10%)
YNT: tripeptide of the amino acid sequence YNT,KAP 11 mRNA expression,KAP11,++++ (++++: >60%)
same,KAP 8 mRNA expression,KAP8,++++ (++++: >60%)
same,Effect on Keratin Associated Protein 8 mRNA expression (in words),KAP8,effectively increase
same,P-cadherin mRNA expression,P-cadherin,+ (+: 11-20%)
same,Effect on levels of desmosomal protein P-cadherin (in words),P-cadherin,effective in boosting
same,Proliferation (%),[1]; 0.00001 wt. % peptide,0 (0: <10%)
same,Proliferation (%),[1]; 0.0001 wt. % peptide,++ (++:21-40%)
same,Effect on Hair Germinal Matrix Cell proliferation (in words),[1],effectively increase
same,Keratin 35 mRNA expression,Keratin35,0 (0; <10%)
